Read-outs that look alike come from different tables or passages of the source.
Assays:
human sAC [1] = molecular target: T1, human sAC (Homo sapiens, UniProt Q96PN6); assay: cellular cAMP accumulation assay in 4-4 cells (hsACt stably transfected into 293T), IBMX; type: cell-based; details: for IC50: stable cell line overexpressing human sAC, 500 μM IBMX, read-out: 4-4, Basal approximate IC50 (or the dose range where the IC50 should lie)
T1 construct: made in house
T1 sequence (Q96PN6 1-469 limits assumed): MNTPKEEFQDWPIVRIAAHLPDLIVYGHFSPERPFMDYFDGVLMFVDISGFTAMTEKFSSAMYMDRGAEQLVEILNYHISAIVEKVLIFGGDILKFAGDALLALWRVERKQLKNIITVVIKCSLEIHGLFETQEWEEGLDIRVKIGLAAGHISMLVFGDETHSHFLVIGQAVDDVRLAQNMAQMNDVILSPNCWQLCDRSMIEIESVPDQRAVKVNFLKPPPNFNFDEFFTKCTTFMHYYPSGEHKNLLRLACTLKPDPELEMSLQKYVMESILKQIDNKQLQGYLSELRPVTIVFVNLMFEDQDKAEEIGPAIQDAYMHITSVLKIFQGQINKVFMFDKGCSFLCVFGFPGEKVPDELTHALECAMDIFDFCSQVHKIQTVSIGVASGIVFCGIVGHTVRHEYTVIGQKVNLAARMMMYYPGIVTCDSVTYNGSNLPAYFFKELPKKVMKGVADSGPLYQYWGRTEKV
Method: 293T cells or 4-4 […] stably transfected into 293T) were grown in 75 cm2 Tissue Culture Flasks until nearly confluent using DMEM (10% FBS, 1% L-Glutamine, 1% Penicillin/Streptomycin). Cells were released from the flask with 3 ml of trypsin followed by addition of 7 ml of DMEM to neutralize the trypsin. Cells were mixed by pipetting up and down with 10 ml serological pipette. To a 3 ml aliquot of the cell mixture, 6 ml of DMEM (prewarmed to 37° C.) was added followed by thorough mixing by picking up the entire 9 mls using a repeat pipettor, and slowly pipetting out against the wall of container. This was repeated this ten times to ensure the mixture in homogenous. 100 μL of cells were then added to each pre-siliconized 1.7 ml Eppindorf tubes (Costar #3207) followed by a 60 min incubation at 37° C. and 5% CO2. This incubation was performed in 20-tube, round, floating racks (VWR #60986-100), which enable a quick transfer of the samples to a water bath, and the ability to mix several samples simultaneously. Following the incubation, 1 μL of the compound in DMSO was added (or just DMSO for controls). The cells were mixed before and after adding the compound, by a brief (and light) vortexing. The compounds were added while the cells were in the 37° C. water bath, followed by a 10 min incubation at 37° C. and 5% CO2. Following this incubation, 1 μL it of IBMX or 1 μL of IBMX+Forskolin was added with Repeat Pipettor. The 4-4 cells receive the IBMX to a final concentration of 500 μM IBMX. […] Both the IBMX mix (for 4-4 cells), and the IBMX/FSK mix (for 293T cells) were 100×, and were dissolved in DMSO. Cells were mixed and incubated at 37° C. and 5% CO2 for 15 min. The assay was stopped by placing the cells in an ice bath. Cells were pelleted by centrifugation at 2000×G for 7 min at 4° C. The supernatant was aspirated and 250 μL of 0.1 N HCl was added to each cell pellet followed by through vortexing for 1 min. Following a 10 min incubation at room temperature, 30 μL of each sample was added to 70 μL of 0.1 N HCl and the cAMP levels were measured using the protocol for the Direct Cyclic AMP Kit (Assay Designs, Inc. #901-066). This 30 μL plus 70 μL of 0.1 N HCl makes up the sample described in step 5 of the Assay Designs' protocol. The samples should lie in the linear range of the assay.

human sAC [2] = molecular target: T1, human sAC; assay: in vitro adenylyl cyclase assay with purified human sAC protein (cAMP by Correlate-EIA); type: biochemical; details: for inhibition at 100 µM: 100 μM of compound
Method: Purified human sAC protein was used in an in vitro adenylyl cyclase assay. Purification of the protein is described in detail in Litvin et al. 2003. (J. Biol. Chem. 278:15922-15926). This paper also describes the general conditions for a sAC cyclase assay. The specific conditions for the in vitro assay are as follows.
For basal sAC activity, an assay master mixture with sufficient volume for all reactions was prepared containing:
100 U/ml creatine phosphokinase (CPK)
An aliquot of the master mixture was added to the purified human sAC. The assay mixture also included the indicated concentration of KH compound, or an equivalent volume of vehicle (i.e., DMSO) as control. The reaction was started by adding 5 mM ATP (total assay volume=100 μL). The reaction mixture was incubated at 30° C. for 30 minutes and then stopped by adding 100 μl […]. Stimulated assay conditions involve adding 40 mM bicarbonate and 5 mM CaCl2 to the above master mixture.
Cyclic AMP levels were measured in each sample using the Correlate-EIA Direct Cyclic AMP assay kit from Assay Designs as per manufacturers instructions.

[3] = test system: endogenous transmembrane adenylyl cyclases; assay: cellular cAMP accumulation assay in 293T cells + IBMX + forskolin; type: cell-based, human; details: for IC50: 293T cells, 500 μM IBMX and 10 μM forskolin, endogenous tmAC activity, read-out: 293T + FSK
Method: 293T cells or 4-4 cells (hsACt stably transfected into 293T) were grown in 75 cm2 Tissue Culture Flasks until nearly confluent using DMEM (10% FBS, 1% L-Glutamine, 1% Penicillin/Streptomycin). Cells were released from the flask with 3 ml of trypsin followed by addition of 7 ml of DMEM to neutralize the trypsin. Cells were mixed by pipetting up and down with 10 ml serological pipette. To a 3 ml aliquot of the cell mixture, 6 ml of DMEM (prewarmed to 37° C.) was added followed by thorough mixing by picking up the entire 9 mls using a repeat pipettor, and slowly pipetting out against the wall of container. This was repeated this ten times to ensure the mixture in homogenous. 100 μL of cells were then added to each pre-siliconized 1.7 ml Eppindorf tubes (Costar #3207) followed by a 60 min incubation at 37° C. and 5% CO2. This incubation was performed in 20-tube, round, floating racks (VWR #60986-100), which enable a quick transfer of the samples to a water bath, and the ability to mix several samples simultaneously. Following the incubation, 1 μL of the compound in DMSO was added (or just DMSO for controls). The cells were mixed before and after adding the compound, by a brief (and light) vortexing. The compounds were added while the cells were in the 37° C. water bath, followed by a 10 min incubation at 37° C. and 5% CO2. Following this incubation, 1 μL it of IBMX or 1 μL of IBMX+Forskolin was added with Repeat Pipettor. The 4-4 cells receive the IBMX to a final concentration of 500 μM IBMX. The 293T cells receive IBMX and Forskolin to final concentration of 500 μM IBMX and 10 μM, respectively. Both the IBMX mix (for 4-4 cells), and the IBMX/FSK mix (for 293T cells) were 100×, and were dissolved in DMSO. Cells were mixed and incubated at 37° C. and 5% CO2 for 15 min. The assay was stopped by placing the cells in an ice bath. Cells were pelleted by centrifugation at 2000×G for 7 min at 4° C. The supernatant was aspirated and 250 μL of 0.1 N HCl was added to each cell pellet followed by through vortexing for 1 min. Following a 10 min incubation at room temperature, 30 μL of each sample was added to 70 μL of 0.1 N HCl and the cAMP levels were measured using the protocol for the Direct Cyclic AMP Kit (Assay Designs, Inc. #901-066). This 30 μL plus 70 μL of 0.1 N HCl makes up the sample described in step 5 of the Assay Designs' protocol. The samples should lie in the linear range of the assay.

[4] = BASAL human sAC in vitro activity, read-out: % Inhibition (100 μM), hsACt-Basal
[5] = stimulated human sAC in vitro activity, read-out: % Inhibition (100 μM), hsACt-Stim.
[6] = BASAL activity of human sAC in vitro (just Mg-ATP, no calcium or bicarbonate), read-out: hsACt-Basal approximate IC50 (or the dose range where the IC50 should lie)
[7] = stimulated activity of human sAC in vitro (calcium and bicarbonate stimulated), read-out: hsACt-Stim. approximate IC50 (or the dose range where the IC50 should lie)

Row | Structure (SMILES) | IC50 (human sAC [1]) | inhibition at 100 µM (human sAC [2]; [4]) | inhibition at 100 µM (human sAC [2]; [5]) | IC50 (human sAC [2]; [6]) | IC50 (human sAC [2]; [7]) | IC50 [3] | cellular toxicity remark, 4-4 Basal (human sAC [1]; 4-4 cells) | cellular toxicity remark, 293T + FSK ([3]; 293T cells + FSK)
1 | C/C(=N\NC(=O)CSc1nc2ccccc2[nH]1)c1ccc(Br)cc1 [KH7.107] | 60 to 120 µM | 95% | 95% | 10 to 100 µM | 10 to 100 µM | > 120 µM |  | 
2 | CCCOc1ccc(/C=N/NC(=O)CSc2nc3ccccc3[nH]2)cc1 [KH7.111] | 3 to 30 µM | 70% | 70% | 10 to 100 µM | 10 to 100 µM | 120 µM |  | 
3 | C/C(=N\NC(=O)CSc1nc2ccccc2[nH]1)c1ccc(Cl)cc1 [KH7.110] | 30 to 60 µM | 90% | 90% | 10 to 100 µM | 10 to 100 µM | > 120 µM |  | 
4 | CC(Sc1nc2ccccc2[nH]1)C(=O)N/N=C/c1ccc([N+](=O)[O-])cc1 (stereo not drawn) [KH7.101] | 30 µM | 50% | 50% | 10 to 100 µM | 10 to 100 µM | > 120 µM |  | 
5 | COc1ccc(/C(C)=N\NC(=O)CSc2nc3ccccc3[nH]2)cc1 [KH7.106] |  |  |  |  |  | > 500 µM |  | 
6 | O=C(CSc1nc2ccccc2[nH]1)NCCc1ccccc1 [KH7.102] | 100 µM | 0% | 0% | > 100 µM | > 100 µM | > 500 µM |  | 
7 | O=C(CSc1nc2ccccc2[nH]1)N/N=C/c1cc(Br)ccc1O [KH7.103] | 60 to 120 µM | 100% | 100% | 10 to 100 µM | 10 to 100 µM | > 120 µM |  | 
8 | O=C(CSc1nc2ccccc2[nH]1)N/N=C/c1cccc(Br)c1 [KH7.104] | 15 µM | 70% | 85% | 10 to 100 µM | 10 to 100 µM | 60 to 120 µM |  | 
9 | C/C(=N/NC(=O)CSc1nc2ccccc2[nH]1)c1ccncc1 [KH7.117] | 167 to 500 µM | 0% | 0% | > 100 µM | > 100 µM | > 500 µM |  | 
10 | C/C(=N\NC(=O)CSc1nc2ccccc2[nH]1)c1ccco1 [KH7.109] | ~120 µM | 0% | 0% | > 100 µM | > 100 µM | > 120 µM |  | 
11 | COc1cc(/C(C)=N\NC(=O)CSc2nc3ccccc3[nH]2)ccc1O [KH7.114] | 56 to 167 µM | 0% | 0% | > 100 µM | > 100 µM | > 500 µM |  | 
12 | C/C(=N\NC(=O)CSc1nc2ccccc2[nH]1)c1ccccc1 [KH7.108] | 30 to 60 µM | 0% | 0% | > 100 µM | > 100 µM | 60 to 120 µM | may be cellular toxicity | may be cellular toxicity
13 | O=C(CSc1nc2ccccc2[nH]1)N/N=C/c1ccc(Cl)cc1Cl [KH7.105] | 15 µM | 90% | 90% | 10 to 100 µM | 10 to 100 µM | 60 µM |  | 
14 | O=C(CSc1nc2ccccc2[nH]1)N/N=C/c1cc(Br)cc(Br)c1O [KH7.149] |  | 90% | 85% | 1 µM | 1 µM |  |  | 
15 | O=C(CSc1nc2ccccc2[nH]1)N/N=C/c1c(Cl)cccc1Cl [KH7.130] |  | 50% | 50% |  |  |  |  | 

Reference: patent publication US9017681B2, “Adenylyl cyclases as novel targets for antibactrial interventions” (Cornell Research Foundation, Inc., priority 2007, dated 2015)
